Experimental data: ChEMBL document CHEMBL1201862, “PubChem BioAssay data set” (2004)
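Assay format: 96-well plates, 48-hour exposure. GI50 marks 50% less growth.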 Active and inactive are the calls of the source. Cut-off read from the data, not from the text of the source: active = GI50 up to about 1.1 µM and inactive = higher.

Experiments:
Experiment in all cases: inhibition of tumour cell growth, NCI panel, 48 h
[1] = system: A549
[2] = system: SK-OV-3
[3] = system: OVCAR-8
[4] = system: OVCAR-4
[5] = system: K562
[6] = system: SR
[7] = system: SF-268
[8] = system: CAKI-1
[9] = system: HL-60
[10] = system: SNB-19
[11] = system: UO-31
[12] = system: 786-0
[13] = system: HOP-62
[14] = system: EKVX
[15] = system: SF-295
[16] = system: NCI-H23
[17] = system: OVCAR-3

Measured: GI50

CC(C)O/C=C1\C(=O)C2(SCCS2)[C@H]2CCCC[C@@H]12
inactive: [1] 37.9 µM | [2] 59.7 µM | [3] 36.6 µM | [4] 48.9 µM | [5] 39.8 µM | [6] 48.9 µM | [7] 39 µM | [8] 29.2 µM | [9] 24.2 µM | [10] 39.5 µM | [11] 41.3 µM | [12] 48 µM | [13] 38 µM

OC12CCC3(OC4CCCCO4)c4ccccc4C3C1c1ccccc12 (stereo not given)
inactive: [1] 85.1 µM | [2] > 100 µM | [3] 74.3 µM | [14] > 100 µM | [4] > 100 µM | [5] 46 µM | [15] 52.5 µM | [6] 37.2 µM | [16] 90.2 µM | [7] 65.9 µM | [9] 30.3 µM | [10] 61.9 µM | [11] 59.6 µM | [12] 67.5 µM | [13] > 100 µM

CSC1C=C(C(C)C)CCC1(C)SC (stereo not given)
inactive: [1] 31.5 µM | [2] 21.4 µM | [3] 19.4 µM | [14] 24.5 µM | [4] 18.1 µM | [17] 12.6 µM | [5] 16.7 µM | [16] 19.3 µM | [7] 20.6 µM | [8] 18.3 µM | [9] 2.3 µM | [10] 21.2 µM | [11] 14.3 µM | [12] 17.8 µM | [13] 19.5 µM

Cc1nc2sccn2c1C(=O)NN
inactive: [1] > 100 µM | [2] > 100 µM | [3] > 100 µM | [14] > 100 µM | [17] > 100 µM | [5] > 100 µM | [15] > 100 µM | [6] > 100 µM | [16] > 100 µM | [7] > 100 µM | [8] > 100 µM | [9] > 100 µM | [10] > 100 µM | [12] > 100 µM | [13] > 100 µM

COC(=O)C(=O)C(C(=O)C(=O)Nc1ccccc1[N+](=O)[O-])c1nc2ccc([N+](=O)[O-])cc2nc1O (stereo not given)
inactive: [1] > 100 µM | [2] > 100 µM | [3] > 100 µM | [14] > 100 µM | [4] > 100 µM | [5] > 100 µM | [15] > 100 µM | [6] > 100 µM | [16] > 100 µM | [7] > 100 µM | [8] > 100 µM | [9] > 100 µM | [10] > 100 µM | [11] > 100 µM | [12] > 100 µM

COc1ccc(NC(=O)CC/C(CC(=O)c2ccccc2Cl)=N\Nc2nnc(C)n2N)cc1
inactive: [1] > 100 µM | [2] > 100 µM | [3] > 100 µM | [14] > 100 µM | [4] > 100 µM | [5] 61.9 µM | [15] > 100 µM | [6] > 100 µM | [16] > 100 µM | [7] > 100 µM | [8] > 100 µM | [9] > 100 µM | [10] > 100 µM | [11] > 100 µM | [12] > 100 µM

COc1ccc(C(=O)C(c2ccc(OC)cc2)C2(O)C(=O)Nc3c(C)cc(Cl)cc32)cc1 (stereo not given)
inactive: [1] > 100 µM | [2] > 100 µM | [3] 92.7 µM | [14] > 100 µM | [4] 63.2 µM | [17] 52 µM | [5] 21.6 µM | [15] 54.8 µM | [6] 12.5 µM | [16] 85.5 µM | [7] 82.8 µM | [9] 17.1 µM | [10] > 100 µM | [11] > 100 µM | [12] > 100 µM | [13] > 100 µM

O=C(CC1(O)C(=O)Nc2c(Cl)ccc(Cl)c21)c1ccc(F)cc1 (stereo not given)
inactive: [1] 58.1 µM | [2] > 100 µM | [3] 36.3 µM | [14] 44.4 µM | [4] 31 µM | [17] 34.8 µM | [5] 23.3 µM | [15] 36 µM | [16] 23.2 µM | [7] 36.1 µM | [8] 44.7 µM | [9] 28.4 µM | [10] 46.6 µM | [11] 44.5 µM | [12] 31.2 µM | [13] 46.7 µM

O=C1C(=Cc2ccc(F)cc2)C(=O)c2ccccc21
inactive: [1] > 100 µM | [2] > 100 µM | [3] > 100 µM | [14] > 100 µM | [4] > 100 µM | [17] > 100 µM | [5] > 100 µM | [15] > 100 µM | [16] > 100 µM | [7] > 100 µM | [8] > 100 µM | [9] 30.5 µM | [10] > 100 µM | [11] > 100 µM | [12] > 100 µM | [13] > 100 µM

CN(/N=C\c1ccnc2ccccc12)c1ccccc1
inactive: [1] 21.6 µM | [2] 31.2 µM | [3] 38.3 µM | [14] 9.12 µM | [4] 25.4 µM | [17] 20.2 µM | [5] 20.6 µM | [15] 25.6 µM | [16] 22.3 µM | [7] 56.1 µM | [8] 31.5 µM | [9] 17.5 µM | [10] 29.2 µM | [11] 25.1 µM | [12] 18.5 µM | [13] 28.1 µM

O=C(O)CSc1nnc(-c2ccccc2O)[nH]1
inactive: [1] > 100 µM | [3] > 100 µM | [14] > 100 µM | [4] > 100 µM | [17] > 100 µM | [5] > 100 µM | [15] > 100 µM | [6] > 100 µM | [16] > 100 µM | [7] > 100 µM | [8] > 100 µM | [9] > 100 µM | [10] > 100 µM | [11] > 100 µM | [12] > 100 µM

NC(=O)c1nc(-c2ccc(Cl)c(Cl)c2)nc2ccccc12
inactive: [1] > 21.4 µM | [2] 12.1 µM | [14] > 41.6 µM | [4] > 100 µM | [5] > 31.6 µM | [6] > 100 µM | [16] 39.7 µM | [7] 19.1 µM | [8] > 94.4 µM | [9] > 100 µM | [10] 17.8 µM | [12] 3.69 µM | [13] > 21.9 µM

CCCCCCCCCCCCCCCC(=O)NCC(COP(=O)([O-])OCC[N+](C)(C)C)OCC (stereo not given)
inactive: [1] 21 µM | [2] 18 µM | [3] 4.42 µM | [14] 19.2 µM | [4] 3.21 µM | [17] 6.25 µM | [15] 5.2 µM | [6] 4.58 µM | [16] 18.8 µM | [7] 12.8 µM | [8] 19.7 µM | [10] 3.71 µM | [11] 18.5 µM | [12] 2.54 µM | [13] 7.35 µM
